From US20220280513A1, “ENHANCING THE ANTIVIRAL EFFICACY OF RNA VIRUS INHIBITION BY COMBINATION WITH MODULATORS OF PYRIMIDINE METABOLISM” (The Board of Trustees of the Leland Stanford Junior …, priority 2019, published 2022)

System: DENV-2 virus
Experiment: Pilot antiviral assay, DENV-Luc replication in A549 cells (FIG. 2)
Format: cell-based, dengue serotype 2 (DENV-2) strain 16681
Protocol: We therefore focused our efforts on evaluating CPU in combination with GSK983. Using an infectious clone of dengue serotype 2 (DENV-2) strain 16681 engineered to express a luciferase reporter, the efficacy and cytotoxicity of combinations of GSK983 and CPU were assessed in infected or uninfected cultures of the A549 lung carcinoma cell line (FIG. 2). […] However, a combination of 0.2 μM GSK and 250 μM CPU inhibited ca. 50% of virus replication.
DENV-Luc reporter virus generation: The design of the pDENV-Luc infectious clone derived from dengue serotype 2 (DENV-2) strain 16681 was described in detail by Marceau et al (Marceau et al., 2016). The plasmid was linearized with Xbal and in vitro transcribed into the genomic RNA of DENV-Luc virus using the T7 Megascript Kit (Ambion) in the presence of m7G(5′)ppp(5′)G RNA Cap Structure Analog (NEB). 5 μg DENV-Luc RNA was electroporated into 2×10^6 Vero cells. The transfected cells were resuspended with Dulbecco's modified Eagle's medium (DMEM; Invitrogen) with 10% FBS and 100 U/ml penicillin-streptomycin and transferred into a T-175 flask incubated at 37° C. with 5% CO2. Supernatants were collected and replenished with fresh medium every 24 h from day 17 to 24 post-transfection, pooled together, clarified by centrifugation and stored in aliquots at −80° C. The amount of infectious DENV-Luc virus in the stock was titrated using the TCID50 assay and calculated by the Spearman & Kärber algorithm as described previously (Hierholzer and Killington, 1996).
Pilot Antiviral Assays (for FIG. 2): A549 cells were plated overnight at 20,000 cells/well in 24-well plates in complete DMEM and incubated for 24 h at 37° C. Cell were then treated with pyrimidine de novo synthesis and/or salvage inhibitors in DMEM supplemented with 20 μM uridine. Four hours after drug addition, cells were infected with DENV-2 virus at a MOI=0.01. After 48 h, DENV-Luc replication was monitored by the production of Renilla luciferase, which was measured using the Renilla-Glo Luciferase Assay System (Promega) according to the specifications of the manufacturer. For the accompanying cell viability assay, A549 cells were seeded into 24-well plates at a density of 20,000 cells/well incubated for 24 h at 37° C. Cell were then treated with pyrimidine de novo synthesis and/or salvage inhibitors in DMEM supplemented with 20 μM uridine. Following 48h treatment, cells were harvested, and the density of viable cells was determined by flow cytometry (FSC/SSC) using a BD Accuri C6 Flow Cytometer.

Compound: O=c1ccn([C@@H]2C=C(CO)[C@@H](O)[C@H]2O)c(=O)[nH]1 [CPU, 1-((1R,4R,5S)-4,5-dihydroxy-3-(hydroxymethyl)cyclopent-2-en-1-yl)pyrimidine-2,4(1H,3H)-dione]
- decrease of DENV-2 titer, synergy (CPU combined with GSK983, exogenous uridine): synergized with GSK983
- virus replication (CPU dose of 1 mM in combination with GSK, 20 μM exogenous uridine): suppressed almost completely
- inhibition of replication of DENV-2 virus, single agent (alone, 20 μM exogenous uridine): neither GSK nor CPU alone inhibited replication
- inhibition of virus replication (combination of 0.2 μM GSK and 250 μM CPU, 20 μM exogenous uridine): ca. 50%
